In ChEMBL document CHEMBL1201862, “PubChem BioAssay data set” (2004):
Calls of active or inactive are those of the source.

Experiments:
Protein RecA = biological target: T1, Protein RecA (Mycobacterium tuberculosis, UniProt P9WHJ3); test: Fluorescence Cell-Free Homogeneous Dose Retest to Identify Inhibitors of RecA-Intein Splicing Activity. [Related pubchem assays (depositor defined):AID2097, AID2223, AID489010, AID492950]; type: functional
T1 sequence (P9WHJ3 whole entry): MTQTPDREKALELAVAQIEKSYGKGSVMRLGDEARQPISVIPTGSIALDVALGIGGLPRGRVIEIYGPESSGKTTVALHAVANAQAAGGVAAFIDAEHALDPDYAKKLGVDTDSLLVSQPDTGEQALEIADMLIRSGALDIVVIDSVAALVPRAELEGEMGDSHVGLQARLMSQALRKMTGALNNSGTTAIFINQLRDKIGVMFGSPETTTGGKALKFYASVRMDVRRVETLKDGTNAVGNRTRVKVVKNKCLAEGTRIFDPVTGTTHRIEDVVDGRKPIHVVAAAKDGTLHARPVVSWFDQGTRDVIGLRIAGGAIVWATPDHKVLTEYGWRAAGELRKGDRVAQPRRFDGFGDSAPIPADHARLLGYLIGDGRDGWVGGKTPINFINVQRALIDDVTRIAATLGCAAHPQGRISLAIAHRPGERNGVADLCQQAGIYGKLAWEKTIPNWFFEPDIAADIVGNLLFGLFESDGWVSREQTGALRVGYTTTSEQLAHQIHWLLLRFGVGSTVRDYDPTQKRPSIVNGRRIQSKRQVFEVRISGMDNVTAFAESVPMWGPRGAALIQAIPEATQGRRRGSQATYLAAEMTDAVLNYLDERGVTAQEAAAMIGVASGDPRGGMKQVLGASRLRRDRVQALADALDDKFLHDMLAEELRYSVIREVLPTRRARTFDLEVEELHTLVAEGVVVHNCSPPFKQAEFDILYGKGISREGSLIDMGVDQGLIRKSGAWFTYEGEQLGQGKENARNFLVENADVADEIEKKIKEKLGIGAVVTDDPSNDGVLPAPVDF

[1] = biological target: T2, Zinc finger protein mex-5 (Caenorhabditis elegans, UniProt Q9XUB2); test: potency of MEX-5 RNA-binding blockers – biochemical, C. elegans, fluorescence polarization, dose response (AID 1960)
T2 sequence (Q9XUB2 whole entry): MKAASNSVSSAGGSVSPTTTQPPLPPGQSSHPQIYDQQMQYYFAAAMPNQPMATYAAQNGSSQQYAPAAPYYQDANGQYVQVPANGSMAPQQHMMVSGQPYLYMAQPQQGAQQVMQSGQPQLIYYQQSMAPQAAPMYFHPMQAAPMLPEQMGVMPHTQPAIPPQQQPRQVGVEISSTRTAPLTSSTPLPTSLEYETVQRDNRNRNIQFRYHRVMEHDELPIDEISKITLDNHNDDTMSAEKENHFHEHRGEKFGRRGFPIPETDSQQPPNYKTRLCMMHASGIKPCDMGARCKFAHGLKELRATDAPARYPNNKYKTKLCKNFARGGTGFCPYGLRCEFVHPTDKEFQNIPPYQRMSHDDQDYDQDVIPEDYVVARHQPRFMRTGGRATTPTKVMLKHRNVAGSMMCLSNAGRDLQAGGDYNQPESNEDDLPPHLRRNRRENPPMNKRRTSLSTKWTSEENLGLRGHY

[2] = biological target: T3, RNA-binding protein pos-1 (Caenorhabditis elegans, UniProt G5EF15); test: disruptors of C. elegans POS-1 RNA interaction – biochemical, fluorescence polarization, dose response (AID 1964);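 note: purified POS-1 fused to maltose binding protein made in E. coli; potency of compounds blocking POS-1 binding to fluorescent RNA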
T3 sequence (G5EF15 whole entry): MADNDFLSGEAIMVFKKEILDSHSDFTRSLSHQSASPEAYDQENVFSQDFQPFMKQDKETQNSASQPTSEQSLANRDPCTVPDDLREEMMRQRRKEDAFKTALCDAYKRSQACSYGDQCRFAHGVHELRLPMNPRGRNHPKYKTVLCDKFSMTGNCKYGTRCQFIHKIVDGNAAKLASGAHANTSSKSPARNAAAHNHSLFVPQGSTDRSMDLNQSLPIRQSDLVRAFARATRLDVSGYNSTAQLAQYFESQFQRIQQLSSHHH

[3] = biological target: T4, Replicative DNA helicase DnaB (Mycobacterium tuberculosis, UniProt P9WMR3); test: DnaB intein splicing inhibitors, dose response, biochemical, cell-free fluorescence (AID 449749); type: functional
T4 sequence (P9WMR3 whole entry): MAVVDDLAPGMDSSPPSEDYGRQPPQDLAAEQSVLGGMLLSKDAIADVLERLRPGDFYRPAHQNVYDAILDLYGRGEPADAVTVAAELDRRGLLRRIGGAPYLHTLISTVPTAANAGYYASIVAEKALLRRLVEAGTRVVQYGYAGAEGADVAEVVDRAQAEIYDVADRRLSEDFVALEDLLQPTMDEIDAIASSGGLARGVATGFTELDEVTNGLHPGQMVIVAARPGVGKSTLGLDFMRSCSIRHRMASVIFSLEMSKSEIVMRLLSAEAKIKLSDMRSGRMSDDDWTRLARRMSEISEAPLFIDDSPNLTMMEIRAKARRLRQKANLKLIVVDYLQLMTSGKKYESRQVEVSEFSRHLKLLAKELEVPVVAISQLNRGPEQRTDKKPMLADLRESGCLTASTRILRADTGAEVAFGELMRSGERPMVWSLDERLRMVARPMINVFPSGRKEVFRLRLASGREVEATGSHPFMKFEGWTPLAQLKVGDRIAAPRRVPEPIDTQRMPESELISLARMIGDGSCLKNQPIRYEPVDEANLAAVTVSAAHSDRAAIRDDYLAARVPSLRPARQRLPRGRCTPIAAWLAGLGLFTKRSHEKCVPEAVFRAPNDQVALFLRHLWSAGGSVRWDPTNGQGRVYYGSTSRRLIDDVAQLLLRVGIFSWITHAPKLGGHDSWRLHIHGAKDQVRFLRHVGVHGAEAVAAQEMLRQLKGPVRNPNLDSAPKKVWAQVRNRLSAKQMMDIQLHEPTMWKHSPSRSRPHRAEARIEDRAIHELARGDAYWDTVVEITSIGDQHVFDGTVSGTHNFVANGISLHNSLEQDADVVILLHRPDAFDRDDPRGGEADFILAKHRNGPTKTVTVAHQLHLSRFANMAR

[4] = HGIII-sPLA2 enzyme inhibition potency – biochemical, QFRET, IC50, dose response (AID 743457);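 note: green fluorescence rise as the enzyme cleaves BODIPY PC-A2 in liposomes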
[5] = fluconazole-exposed Candida albicans growth modulators – fluorescence, retest, confirmation (AID 2467); type: functional, cell-based
[6] = NIH-3T3 fibroblast cytotoxicity, dose response, cytotoxicity control, cell-based, fluorescence, Alamar Blue, secondary assay (AID 2327); type: functional;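 note: NIH-3T3 mouse fibroblasts cultured with fluconazole at 8 µg/mL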
Albumin = Albumin (Bos taurus, UniProt P02769); test: Counterscreen for inhibitors of T-cell receptor (TCR)-CD3 interaction: Fluorescence-based biochemical high throughput dose response assay to identify inhibitors of T-cell receptor (TCR)-CD3 interaction using a TAMRA-labeled BSA probe.; type: functional
[7] = blockers of bursicon-stimulated LGR2 cAMP reporter – cell-based, HEK293, CRE-luciferase reporter, cherry pick, set 2, dose response (AID 743343); type: functional;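 note: transfected cells were stimulated with diluted bursicon conditioned medium after compound addition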
[8] = A549 cell cytotoxicity, dose response, cytotoxicity control, plate reader, cherry-pick, antagonist series (AID 743412); type: functional, cell-based
[9] = viability loss in HEK293 cells – cell-based, plate reader, cherry-picked samples, cytotoxicity control, dose response (AID 743446); type: functional
Protein skinhead-1 = biological target: T5, Protein skinhead-1 (Caenorhabditis elegans, UniProt P34707); type: functional
T5 sequence (P34707 whole entry): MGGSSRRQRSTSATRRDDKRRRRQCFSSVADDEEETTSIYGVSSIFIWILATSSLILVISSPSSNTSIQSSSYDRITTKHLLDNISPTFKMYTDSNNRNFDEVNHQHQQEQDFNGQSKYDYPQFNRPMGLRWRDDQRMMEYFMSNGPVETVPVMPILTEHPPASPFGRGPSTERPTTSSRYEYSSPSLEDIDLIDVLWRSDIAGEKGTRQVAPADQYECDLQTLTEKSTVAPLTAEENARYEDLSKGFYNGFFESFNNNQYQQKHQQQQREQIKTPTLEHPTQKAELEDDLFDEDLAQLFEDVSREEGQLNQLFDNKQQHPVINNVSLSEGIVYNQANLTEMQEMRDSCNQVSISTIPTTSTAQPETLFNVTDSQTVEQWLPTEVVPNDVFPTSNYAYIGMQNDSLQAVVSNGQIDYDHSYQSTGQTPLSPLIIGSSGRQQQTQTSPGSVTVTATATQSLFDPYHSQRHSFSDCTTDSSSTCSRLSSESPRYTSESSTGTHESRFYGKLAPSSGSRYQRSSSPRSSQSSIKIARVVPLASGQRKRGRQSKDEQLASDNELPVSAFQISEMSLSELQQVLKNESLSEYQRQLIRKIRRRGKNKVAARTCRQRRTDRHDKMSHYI

[10] = toxicity toward HepG2 liver cells – cell-based, plate reader, cherry-pick, antagonist series, cytotoxicity control, dose response (AID 743416); type: functional
[11] = Luminescence Cell-Based Dose Confirmation HTS to Identify Inhibitors of Platelet Dense Granule Release. [Related pubchem assays: 1663 (Primary HTS), 1678 (Summary of Project)]; type: functional
[12] = blockade of melanocortin 4 receptor signaling – cell-based, plate reader, cherry pick, counter-screen for LGR2 antagonist project, dose response (AID 743444); type: functional;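 note: transfected HEK 293 cells stimulated with alpha-MSH peptide; potency of inhibitors of the alpha-MSH evoked signal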
[13] = biological target: Luciferin 4-monooxygenase (Photinus pyralis, UniProt P08659); test: inhibition of purified Photinus pyralis luciferase – biochemical, luminescence, dose response (AID 1891)
BJ [14] = test: BJ-TERT fibroblast viability loss – cell-based, RAS-independent, luminescence, dose response (AID 1933); type: functional; conditions: Homo sapiens
BJ [15] = test: cells; type: functional, cell-based; conditions: Homo sapiens
BJ [16] = test: BJ-TERT-LT-ST fibroblast viability loss – cell-based, RAS-independent, luminescence, dose response (AID 1935); type: functional; conditions: Homo sapiens;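 note: BJ fibroblasts immortalized with TERT plus LT and ST oncogenes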
[17] = DRD fibroblast viability loss – cell-based, non-viral oncogenic, luminescence, dose response (AID 1934); type: functional; conditions: Homo sapiens

Sequence of Luciferin 4-monooxygenase (P08659 whole entry): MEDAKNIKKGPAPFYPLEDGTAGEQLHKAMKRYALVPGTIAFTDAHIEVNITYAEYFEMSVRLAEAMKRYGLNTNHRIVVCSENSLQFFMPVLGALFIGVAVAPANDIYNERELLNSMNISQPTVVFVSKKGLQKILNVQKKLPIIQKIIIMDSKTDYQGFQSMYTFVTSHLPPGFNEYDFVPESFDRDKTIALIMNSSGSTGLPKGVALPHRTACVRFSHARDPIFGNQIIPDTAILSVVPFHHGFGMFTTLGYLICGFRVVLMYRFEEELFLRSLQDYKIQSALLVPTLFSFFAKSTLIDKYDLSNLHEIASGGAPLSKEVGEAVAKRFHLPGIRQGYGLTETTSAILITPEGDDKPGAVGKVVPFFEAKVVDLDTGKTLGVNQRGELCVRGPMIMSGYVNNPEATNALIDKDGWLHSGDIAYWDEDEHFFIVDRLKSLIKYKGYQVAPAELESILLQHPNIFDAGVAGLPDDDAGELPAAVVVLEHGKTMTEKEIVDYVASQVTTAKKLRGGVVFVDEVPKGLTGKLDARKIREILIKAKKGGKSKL
Sequence of Albumin (P02769 whole entry): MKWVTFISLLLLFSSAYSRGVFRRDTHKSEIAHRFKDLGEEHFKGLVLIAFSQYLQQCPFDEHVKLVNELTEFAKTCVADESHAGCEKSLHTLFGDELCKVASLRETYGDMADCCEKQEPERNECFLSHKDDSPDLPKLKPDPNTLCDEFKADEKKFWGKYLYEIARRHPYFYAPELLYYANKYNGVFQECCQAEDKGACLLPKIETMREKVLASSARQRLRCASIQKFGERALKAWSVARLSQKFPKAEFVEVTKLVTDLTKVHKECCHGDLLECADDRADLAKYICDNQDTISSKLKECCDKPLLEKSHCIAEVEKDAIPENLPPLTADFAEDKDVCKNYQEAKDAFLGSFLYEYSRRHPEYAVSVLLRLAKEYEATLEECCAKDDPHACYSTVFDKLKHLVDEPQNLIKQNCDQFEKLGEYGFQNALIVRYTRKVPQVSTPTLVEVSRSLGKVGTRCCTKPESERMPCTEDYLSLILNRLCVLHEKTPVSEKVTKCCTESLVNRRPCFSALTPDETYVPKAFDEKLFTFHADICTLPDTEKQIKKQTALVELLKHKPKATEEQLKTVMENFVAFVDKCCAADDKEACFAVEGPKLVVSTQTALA

SMILES | EC50 (Protein RecA) | EC50 [1] | EC50 [2] | AC50 [3] | IC50 [4] | EC50 [5] | EC50 [6] | IC50 (Albumin) | AC50 [7] | AC50 [8] | AC50 [9] | IC50 (Protein skinhead-1) | AC50 [10] | EC50 [11] | AC50 [12] | EC50 [13] | EC50 (BJ [14]) | EC50 (BJ [15]) | EC50 (BJ [16]) | EC50 [17]
O=C(NNC(=O)c1ccc2ccccc2c1O)c1ccccc1Cl | > 380 µM (inactive) | 2.31 µM (inconclusive) | 15.4 µM (inconclusive) | 30 µM (active) | > 122 µM (inactive) | > 38 µM (not active) | > 160 µM (inactive) | > 94.1 µM (inactive) |  |  |  |  |  |  |  |  |  |  |  | 
CCOc1ccc2nc(NC(=O)c3ccco3)sc2c1 |  |  |  |  |  |  |  |  | 8.15 µM (active) | 35.4 µM (active) | 20.6 µM (active) | > 100 µM (inactive) | 32.6 µM (active) | 3.13 µM (active) | 7.74 µM (active) | 0.383 µM (active) |  |  |  | 
O=C(Nc1ccc(-c2nc3ccccc3[nH]2)cc1)C1CCCO1 (configuration not stated) |  |  |  |  |  |  |  |  | 6.14 µM (active) | 14.1 µM (active) | 21 µM (active) |  | 24.7 µM (active) | 1.69 µM (active) | 6.98 µM (active) | 1.02 µM (active) | 8.39 µM (inconclusive) | 16.8 µM (inconclusive) | 22.9 µM (active) | 9.19 µM (inconclusive)
